In paper PMC12782889, “A GmNRF5a–GmCERK1–GmCAK1 module mediates chitin/chitosan‐triggered immune response in soybean” (Journal of Integrative Plant Biology, 2025):

Legend:
GmNFR5a^ECDF124R = assay: MST binding to GmNFR5a^ECD mutant F124R; parameters: species or system soybean (Glycine max); conditions: ligand dp6
Excerpt: (§1) The ectodomains of GmCERK1, GmNFR5a, and mutants were cloned into the yeast expression vector pPICZαA (Thermo Fisher Scientific, Shanghai, China) through the double digestion and ligation using the restriction endonuclease EcoRI/XbaI (NEB, Suzhou, China) and T4 ligase. Then, the linearized recombinant plasmid pPICZαA‐GmCERK1 and pPICZαA‐GmNFR5a were transformed into P. pastoris X‐33. The positive colonies were selected on YPDS medium (1% w/v yeast extract, 2% w/v peptone, 2% w/v glucose, 2% w/v agar, 100 μg/mL antibiotic Zeocin (Thermo Fisher Scientific)) plates and verified by direct DNA sequencing. Protein expression was carried out initially in BMGY media (100 mM potassium phosphate pH 6.0, 1.34% w/v YNB, 4 × 10^−5% w/v biotin, 1% v/v glycerol) at 28°C with shaking (180 rpm) until the OD600 reached 2.0–6.0. The cell pellet was transferred into BMMY medium (100 mM potassium phosphate pH 6.0, 1.34% w/v YNB, 4 × 10^−5% w/v biotin, 0.5% v/v methanol) and continuously supplied with the addition of 0.5% (v/v) methanol every day for 5 d. […]
(§2) GmCERK1^ECD, GmNFR5a^ECD, and all mutants were labeled with a fluorescent dye using the Monolith Protein Labeling Kit RED‐NHS second Generation (MO‐L011). […] The data were analyzed and fitted by plotting ligand concentrations against bound fractions using the MO.Affinity Analysis v3.0.5 software. […]

GmNFR5a^ECDL153R = assay: MST binding to GmNFR5a^ECD mutant L153R; parameters: species or system soybean (Glycine max); conditions: ligand dp6
Excerpt: as §1, §2

GmCERK1^ECDI137R = assay: MST binding to GmCERK1^ECD mutant I137R; parameters: species or system soybean (Glycine max); conditions: ligand dp6
Excerpt: as §1, §2

GmCERK1^ECDY109R = assay: MST binding to GmCERK1^ECD mutant Y109R; parameters: species or system soybean (Glycine max); conditions: ligand dp6
Excerpt: as §1, §2

[1] = system: soybean leaf discs (ROS burst); assay: Luminol-based ROS burst assay in soybean leaf discs; type: cell-based, soybean (Glycine max); conditions: 50 mg/L, leaf discs of soybean Williams, dH2O negative control
Description: To measure the oxidation burst, leaf discs (Ø 0.5 cm) collected from 2-week-old soybean (cultivar Williams) were floated overnight in 200 μL sterile H2O in a 96-well plate. The H2O was replaced with 200 μL reaction buffer containing luminol/peroxidase ([…] luminol, 10 mg/mL peroxidase) and chitooligosaccharides treatments (50 mg/L). flg22 was used as a positive control. The luminescence was measured using a GLOMAX96 microplate luminometer (Promega, Madison, WI, USA). The experiments for MAPK activation were carried out as described previously ([[…] et al., 2014]). The MAPK activation was determined by immunoblots with anti-phospho-p44/42 MAPK antibody (#4370; Cell Signaling, Boston, MA, USA).

AtCERK1^ECD = target: T1, AtCERK1^ECD (Arabidopsis thaliana, UniProt A8R7E6); parameters: method as in Cao et al., 2014; conditions: isothermal titration calorimetry (ITC); ref Cao et al., 2014; read-out: K D for AtCERK1^ECD with CTOS; cited from earlier work
T1 construct: ectodomain of AtCERK1 (aa25–224); made in house; host or cells: Pichia pastoris X-33
T1 sequence (A8R7E6 25-224): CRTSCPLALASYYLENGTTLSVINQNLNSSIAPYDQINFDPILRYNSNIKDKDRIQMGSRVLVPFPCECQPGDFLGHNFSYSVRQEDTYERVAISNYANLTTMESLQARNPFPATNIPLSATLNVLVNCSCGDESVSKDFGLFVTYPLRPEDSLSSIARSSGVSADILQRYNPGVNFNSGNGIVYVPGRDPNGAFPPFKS

Structure (SMILES)	interaction with GmNFR5a^ECDF124R (GmNFR5a^ECDF124R)	interaction with GmNFR5a^ECDL153R (GmNFR5a^ECDL153R)	interaction with GmCERK1^ECDI137R (GmCERK1^ECDI137R)	interaction with GmCERK1^ECDY109R (GmCERK1^ECDY109R)	ROS burst [1]	Kd (AtCERK1^ECD)
N[C@H]1[C@H](O[C@H]2[C@H](O)[C@@H](N)[C@H](O[C@H]3[C@H](O)[C@@H](N)[C@H](O[C@H]4[C@H](O)[C@@H](N)[C@H](O[C@H]5[C@H](O)[C@@H](N)[C@H](O[C@H]6[C@H](O)[C@@H](N)C(O)O[C@@H]6CO)O[C@@H]5CO)O[C@@H]4CO)O[C@@H]3CO)O[C@@H]2CO)O[C@H](CO)[C@@H](O)[C@@H]1O (stereo partly drawn) [CSOS (dp6), chitosan oligosaccharide]	cannot interact	cannot interact	cannot interact	cannot interact	–	–
CC(=O)N[C@H]1[C@H](O[C@H]2[C@H](O)[C@@H](NC(C)=O)[C@H](O[C@H]3[C@H](O)[C@@H](NC(C)=O)C(O)O[C@@H]3CO)O[C@@H]2CO)O[C@H](CO)[C@@H](O[C@@H]2O[C@H](CO)[C@@H](O[C@@H]3O[C@H](CO)[C@@H](O[C@@H]4O[C@H](CO)[C@@H](O)[C@H](O)[C@H]4NC(C)=O)[C@H](O)[C@H]3NC(C)=O)[C@H](O)[C@H]2NC(C)=O)[C@@H]1O (stereo partly drawn) [CTOS (dp6), chitin oligosaccharide]	–	–	–	–	stronger ROS burst than that of CTOS (dp4)	455 µM
